Source: paper PMC6104605, “Discovery of new chromen-4-one derivatives as telomerase inhibitors through regulating expression of dyskerin” (Journal of Enzyme Inhibition and Medicinal Chemistry, 2018)

Columns and labels:
[1] = test system: SGC-7901 cells; assay: Annexin V-FITC/PI apoptosis analysis by flow cytometry; assay type: cell-based, human; settings: 48 h, control 3.06%
Protocol: Apoptosis was detected by flow cytometric analysis of annexin V staining. Annexin V-FITC/PI assay was performed according to previously described. First, adherent SGC-7901 cells were harvested and suspended in the annexin-binding buffer (1 × 10^6 cells/mL). Then, cells were incubated with V-FITC buffer and incubated with annexin V-FITC for 15 min and then stained by PI for 5 min at 4 °C in the dark, immediately analyzed by flow cytometry. The data are presented as biparametric dot plots showing PI red fluorescence versus annexin V-FITC green fluorescence.

[2] = test system: dyskerin; assay: Western blot, dyskerin; assay type: cell-based, human; settings: SGC-7901, 1, 2 and 4 μM, 48 h
Protocol: (§1) An equivalent volume of 5 × SDS-sample buffer was added to cell lysates and boiled for 10 min. The supernatants were subjected to electrophoresis on SDS-PAGE gels and transferred to PVDF membrane by using a Bio-Rad apparatus. Membranes were blocked for 3 h at room temperature in TBST containing 5% non-fat dried milk and probed overnight at 4 °C with antibodies. CyclinD1 (abcam, ab134175, 1:10000), CDC25A (abcam, ab156574, 1:1000), CDC25C (abcam, ab32051, 1:1000), bcl-2 (abcam, ab32124,1:1000), bax (abcam, ab32503, 1:1000), PARP (abcam, ab191217, 1:1000), γH2AX (abcam, ab81299, 1:5000), dyskerin (abcam, ab156877, 1:1000), NHP2 (abcam, ab180498, 1:1000), NOP10 (abcam, ab133726, 1:1000) antibody was performed with rabbit primary antibody. Otherwise, β-actin (ZSGB-BIO, 1:1000) detection was performed with mouse primary antibody which was served as internal controls. Protein bands of β-actin was visualised using peroxidase-labeled goat anti-mouse and others were visualised using peroxidase-labeled goat anti-rabbit secondary antibody (1:5000 dilution, 1 h, room temperature), and the protein expression signals were detected by the BeyoECL Plus (Beyotime).

[3] = test system: dyskerin; assay: Immunofluorescence staining of dyskerin localisation; assay type: cell-based, human; settings: SGC-7901, 2 µM, 48 h
Protocol: SGC-7901 cells were grown on glass coverslips in a 6-well culture plate until approximately 30–40% confluent and then treated with compound 5i for 48 h. The coverslips were fixed in 4% paraformaldehyde for 15 min, followed by 0.5% Triton X-100 for 30 min at room temperature. Fixed and permeabilised cells were blocked with 3% BSA for 30 min at room temperature. Then, the cells were respectively immunolabeled with the appropriate primary and secondary antibodies. FITC-conjugated anti-rabbit IgG (ZSBIO, 1:100) for dyskerin emit green fluorescence. DAPI was used for nuclear staining.

[4] = test system: human glioma cell U87; assay: MTT anticancer assay, U87; assay type: cell-based; settings: 48 h exposure, mean ± SD, dash = footnote d 'None'
Protocol: (§2) The MTT was purchased from Sigma. Cell Cycle Analysis Kit and Apoptosis Analysis Kit were purchased from Bestbio (China). Mitochondrial membrane potential assay kit with JC-1 was purchased from Beyotime (China). All the materials were used as received without further purification unless noted specifically. The cell culture was maintained on DMEM medium (Hyclone, US) supplemented with 10% fetal bovine serum (Sijiqing, China), 100 U/mL penicillin and 100 µg/mL streptomycin in 25-cm^2 culture flasks at 37 °C humidified atmosphere with 5% CO2. Drugs were dissolved in DMSO and filtered through 0.22-µm pore-size filter units before addition to cell line appropriate media. When tumor cells were grown to log phase, diluting to 5 × 10^4 cells mL^−1 with the complete medium, 100 µL of the obtained cell suspension was added to each well of 96-well culture plates. The subsequent incubation was performed at 37 °C, 5% CO2 atmosphere for 48 h before subjecting to anti-proliferation assessment. After 48-h exposure period, 20 µL of PBS containing 5 mg·mL^−1 of MTT was added to each well. After 4 h, the medium was replaced by 150 µL DMSO to dissolve the purple formazan crystals produced. The absorbance at 492 nm of each well was measured on an ELISA plate reader. The data represented the mean of three experiments in triplicate and were expressed as means ± SD. The IC50 value was defined as the concentration at which 50% of the cells could survive. The following human tumor cell lines were used in the assay: human gastric cancer cells SGC-7901, human liver cancer cell SMMC-7721 and HepG2, human cervical cancer cell Hela and human glioma cell U87.

[5] = test system: human liver cancer cell HepG2; assay: MTT anticancer assay, HepG2; assay type: cell-based; settings: 48 h exposure, mean ± SD, dash = footnote d 'None'
Protocol: as §2

[6] = Octanol water partition coefficient, shake flask; assay type: physicochemical; settings: octanol/PBS pH 7.4, 37 °C
Protocol: Octanole water partition coefficients was measured by the method of shake flask with slight modification. The aqueous phase was replaced by PBS (pH 7.4). First, the phase of octanol and the aqueous were saturated with each other. Then, the mixture containing title compounds was shaken at 37 °C. After 24 h, the mixture was centrifuged at 4000 rpm for 30 min, followed by the measured with ultraviolet spectrophotometer. At last, logP values were calculated.

[7] = test system: γH2AX; assay: Western blot, γH2AX; assay type: cell-based, human; settings: SGC-7901, 1, 2 and 4 μM, 48 h
Protocol: as §1

[8] = test system: CDC25C; assay: Western blot, CDC25C; assay type: cell-based, human; settings: SGC-7901, 1, 2 and 4 μM, 48 h
Protocol: as §1

[9] = test system: human liver cancer cell SMMC-7721; assay: MTT anticancer assay, SMMC-7721; assay type: cell-based; settings: 48 h exposure, mean ± SD
Protocol: as §2

[10] = test system: NOP10; assay: Western blot, NOP10; assay type: cell-based, human; settings: SGC-7901, 1, 2 and 4 μM, 48 h
Protocol: as §1

[11] = test system: PARP; assay: Western blot, PARP; assay type: cell-based, human; settings: SGC-7901, 1, 2 and 4 μM, 48 h
Protocol: as §1

## COc1cc(OC)c2c(=O)c(OCCCCN3CCN(C(=O)c4ccncc4)CC3)c(-c3cc(OC)c(OC)c(OC)c3)oc2c1 [Compound 5i, 3-(4-(4-isonicotinoylpiperazin-1-yl)butoxy)-5,7-dimethoxy-2-(3,4,5-trimethoxyphenyl)-4H-chromen-4-one]
[1]; SGC-7901, 1 µM
  Apoptosis ratio: 12.47%
[1]; SGC-7901, 2 µM
  Apoptosis ratio: 26.3%
[1]; SGC-7901, 4 µM
  Apoptosis ratio: 48.7%
[2]
  protein level of dyskerin (western blot): significantly reduced
[3]
  cytoplasm localisation dyskerin (immunofluorescence): significantly reduced
  nucleus dyskerin (immunofluorescence): almost all the nucleus dyskerin was disappeared
[4]
  IC50: 2.5 ± 0.11 µM
[5]
  IC50: 4.12 ± 0.51 µM
[6]; octanol/PBS (pH 7.4), pH 7.4, shake flask, read-out: Log p (octanole water partition coefficient)
  logP at 24 h: 3.01
[6]; shake flask, 24 h
  Log p (octanole water partition coefficient): 2.81
[7]
  expression of γH2AX (western blot): significantly decrease
[8]
  expression of CAC25C (western blot): significantly decrease
[9]
  IC50: 1.33 ± 0.14 µM
[10]
  NOP10 protein level (western blot): no significant changes
[11]
  PARP (western blot): reduced
